Measurements from patent US20070274947A1, “Antisense Oligonucleotides Directed to Ribonucleotide Reductase R1 and Uses Thereof in the Treatment of Cancer” (priority 2003, published 2007).
“Also recorded” adds a separate entry of the source.

Key:
[1] = system: SK-OV-3 (ovary); assay: Colony forming ability, SK-OV-3; type: cell-based, human; conditions: 0.2 μM antisense oligonucleotide/lipofectin, 4 hours
Description: The effect of SEQ ID NO:1 on the colony forming ability were evaluated in the following human tumor cell lines:
Tumor cells were washed in 5 ml of phosphate buffered saline, pH 7.2, prior to 0.2 μM antisense oligonucleotide/lipofectin treatment for 4 hours. The medium was removed and the cells were gently washed with 5 ml of growth medium. The cells were then cultured in growth medium for seven to ten days. Surviving colonies were visualized by methylene blue staining and colonies of 50 or more cells were scored (Choy et al., 1988 and Huang and Wright, 1994). Results are summarized from 4 to 8 trials for each tumor cell line.

[2] = system: R1 protein; assay: Western blot of R1 protein in MDA-MB-231 cells; type: cell-based, human; conditions: SEQ ID NO:1 0.025-0.2 μM, controls 0.2 μM
Description: MDA-MB-231 human breast adenocarcinoma cells were treated with increasing concentrations (0.025-0.2 μM) of SEQ ID NO:1, 0.2 μM of a scrambled control analogue of SEQ ID NO:1 (SEQ ID NO:1 Scr) or a mismatched control analogue of SEQ ID NO:1 (SEQ ID NO:1 Mis) that contains four base changes. Cells were then washed and fresh media were added. Cells were harvested 8-18 hours later for protein extractions. Aliquots of cell extracts were heated at 100° C. for 5 minutes and then analyzed on sodium dodecyl sulfate-polyacrylamide gels (Choy et al., 1988). Proteins were then transferred to membranes. Membranes were blocked and then incubated with anti-R1 antibody for 1 hour at room temperature. Membranes were washed three times in cold TBS-Tween buffer followed by incubation for 30 minutes to 1 hour at room temperature in the presence of a second antibody (goat anti-rabbit immunoglobulin linked with horseradish peroxidase). Blots were washed and bound antibodies were detected by development of the […] reaction (Fan et al., 1996).

[3] = system: R1 mRNA; assay: Northern blot of R1 mRNA in A2058 human melanoma cells; type: cell-based; conditions: 0.2 μM, 4 hr with Lipofectin
Description: A2058 human melanoma cells, grown to subconfluency (70-80%), were treated with 0.2 μM of phosphorothioate antisense ODNs for 4 hr in the presence of cationic lipid (Lipofectin reagent, final concentration, 5 μg/ml, GIBCO BRL) and Opti-MEM (GIBCO BRL). Cells were washed once with PBS and incubated for 16 hr in α-MEM medium (GIBCO BRL) containing 10% FBS. Total RNA was prepared in TRIzol reagent (GIBCO BRL) and northern blot analysis was performed as previously described (Hurta and Wright, J. Cell. Biochem. 57: 543-56, 1995) with some modifications. RNA prepared from cells treated with lipofectin alone (Control), SEQ ID NO:1 and scrambled control analogue (SEQ ID NO:1 Scr) were subjected to electrophoresis through 1% formaldehyde agarose gels followed by transfer to nylon membrane. The blots were hybridized with ^32P-labeled probes that detect R1 mRNA, 28S rRNA, 18S rRNA, thioredoxin mRNA, […], GAPDH mRNA, thioredoxin reductase mRNA, ribosomal protein S9 mRNA, RNase MRP RNA, RNase P RNA and R2 mRNA.

[4] = system: human tumors; assay: In vivo primary pharmacology, human tumors in mouse models
[5] = system: MDA-MB435-To.1 human Taxol-resistant breast adenocarcinoma cells; assay: Taxol-resistant breast adenocarcinoma MDA-MB435-To.1 growth in SCID mice; type: in vivo
Description: MDA-MB435-To.1 human Taxol-resistant breast adenocarcinoma cells (4×10^6 cells in 100 μl of PBS) were injected into the fat pad (inside of right leg) of 6-7 weeks old female SCD mice. After the size of tumor reached an approximate volume of 100 mm^3, 20 days post tumor cell injection, SEQ ID NO:1 was administered by bolus infusion into the tail vein every other day at 10 mg/kg 15 times. Control animals received saline alone for the same period. Antitumor effect of SEQ ID NO:1 was further compared to that of Cisplatin or Taxol alone (FIG. 15A). Cisplatin was administered intravenously once a week for four weeks at a dose of 4 mg/kg. Taxol was administered intravenously once a week for four weeks at a dose of 20 mg/kg. Antitumor activities were estimated by the inhibition of tumor volume, which was measured with caliper (FIG. 15B). Each point represents mean tumor volume calculated from 9-10 animals per experimental group. […] As expected, treatment with Taxol during the same period was ineffective against Taxol-resistant tumor.
MDA-MB435-To.1 human Taxol-resistant breast adenocarcinoma cells (4×10^6 cells in 100 μl of PBS) were injected into the fat pad (inside of right leg) of 6-7 weeks old female CB-17 SCID mice. After the size of tumor reached an approximate volume of 100 mm^3, 17 days post tumor cell injection, SEQ ID NO:1 was administered by bolus infusion into the tail vein every other day at 10 mg/kg. Control animals received saline alone for the same period. Antitumor effect of SEQ ID NO:1 was compared to that of Cisplatin alone and in combination. Cisplatin was administered intravenously once a week for four weeks at a dose of 4 mg/kg. Antitumor activities were estimated by the inhibition of tumor volume, which was measured with caliper (FIG. 15B). Each point represents mean tumor volume calculated from 10 animals per experimental group. At the end of the study the animals were sacrificed and tumors weighed (FIG. 15C).

[6] = system: Human taxol-resistant promyelocytic leukemia cells (HL-60); assay: Taxol-resistant promyelocytic leukemia (HL-60) growth in SCID mice; type: in vivo; conditions: SEQ ID NO:1 10 mg/kg i.v. every other day, taxol 10 mg/kg i.p. once a week
Description: Human taxol-resistant promyelocytic leukemia cells (HL-60) (7×10^6 cells in 100 μl of PBS) were injected into the right flank of 6-7 weeks old female SCID mice. After the size of tumor reached an approximate volume of 100 mm^3, 10 days post tumor cell injection, SEQ ID NO:1 was administered by bolus infusion into the tail vein every other day at 10 mg/kg. Control animals received saline alone for the same period. The anti-tumor effect of SEQ ID NO:1 was further compared to that of taxol. Taxol was administered i.p. once a week at a dose of 10 mg/kg. Anti-tumor activity was estimated by the inhibition of tumor volume, which was measured with caliper (FIG. 17A). Each point represents mean tumor volume calculated from 10 animals per experimental group. In addition animals were sacrificed and tumor weights taken at the end of the study.

[7] = Repeat dose 14-day toxicity study in monkeys (Part 1); conditions: monkey

## 5′-CTCTAGCGTCTTAAAGCCGA-3′ (CTCTAGCGTCTTAAAGCCGA; chemistry not given here) [SEQ ID NO:1]
[1]
  inhibition in colony forming ability: greater than 60%
[2]
  R1 protein expression: specifically decreases R1 protein expression in a dose-dependent manner; also recorded: decreased R1 protein expression in a dose-dependent manner
[3]
  R1 mRNA expression: significant decrease; also recorded: significantly decrease expression of R1mRNA
[4]; SCID mice that are T and B cell deficient
  efficacy in tumor xenograft experiments: highly effective
[4]; doses of 1.0 to 10 mg/kg/day
  growth of human tumors in mouse models: significantly inhibited the growth
[5]; first experiment, Cisplatin 4 mg/kg weekly as positive control
  delay in tumor growth compared with Cisplatin: superior to the inhibitory effects observed with Cisplatin
[5]; first experiment, start 20 days post injection, SEQ ID NO:1 10 mg/kg 15 times, Cisplatin 4 mg/kg, Taxol 20 mg/kg weekly for four weeks
  tumor weight / tumor growth: significant reduction of tumor weight
[5]; second experiment, CB-17 SCID mice
  delay in tumor growth compared with Cisplatin: superior to the inhibitory effects observed with Cisplatin
[5]; second experiment, CB-17 SCID mice, start 17 days post injection, SEQ ID NO:1 10 mg/kg every other day, Cisplatin 4 mg/kg weekly
  tumor weight / tumor growth: significant reduction of tumor weight
[6]
  tumor growth / tumor weight: significant reduction of tumor weight
[7]; 14-day infusion up to 40 mg/kg/day
  deaths, clinical signs, appetite, ophthalmology, cardiology, hematology, organ weights: no deaths, no treatment-related clinical signs, effects on appetite, ophthalmology effects, cardiology, hematology effects, or changes in organ weights
[7]; continuously for 14 days at 10 mg/kg/day (123 mg/m^2/day)
  toxicity: Minimal and reversible toxicity
